Patent US20080070888A1, “AZETIDINE AND AZETIDONE DERIVATIVES USEFUL IN TREATING PAIN AND DISORDERS OF LIPID METABOLISM” (priority 2006, published 2008)
Counter-ions that a name gives are not always drawn.

Biological target: T1, CaV3.2 (Homo sapiens, UniProt O95180)
T1 construct: expressed in transfected cells; host or cells: HEK cells, stably transfected; human Kir2.1 co-expressed
Test: CaV3.2 assay: functional evaluation of T-type calcium currents (IonWorks HT screen for hCaV3.2 / conventional whole cell patch clamp) in stably transfected HEK cells
Assay type: cell-based
Source text: Functional evaluation of voltage-gated ion channels was used to determine potency and/or single concentration efficacy of proprietary compounds. Two different methodologies were used to measure ion currents: the IonWorks HT (Molecular Devices, Sunnyvale, Calif.) a moderate throughput voltage clamp screening platform that utilizes 96-well compound plates and conventional whole cell patch clamp for lower throughput, higher fidelity determinations.
HEK cells were transiently transfected and then selected for stable heterologous expression of different channel proteins of interest. Calcium channel cell lines expressed a resting potassium current, human Kir2.1, and the pore forming α-subunit of voltage-gated calcium channels. In the case of Cav2.1 cells the auxiliary subunit, β2a, was also expressed. Calcium channel lines that were used to generate the data in this document expressed either human Cav3.2, rat Cav3.2 or human Cav2.1. The human heart sodium channel, hNav1.5, was stably expressed in CHO cells. These cells were licensed from the University of Pennsylvania.
Cell lines were grown at 37° C. in humidified incubators, equilibrated with 95% air/5% CO2. CHO cells were grown in Ham's F-12 medium. HEK cells were grown in DMEM. All media were supplemented with 10% heat-inactivated fetal bovine serum, penicillin, streptomycin and appropriate selection antibiotics (zeocin, geneticin and/or hygromycin). Cells were passaged when 80% confluent or less.
Ionworks Screen for hCaV3.2
The extracellular buffer for experiments using this instrument contained the following (mM) (NaCl 125, HEPES 10, KCl 5.4, CaCl2 1.8, MgCl2 1.8, 0.2 BaCl2 pH 7.35). […]
Experiments were performed at room temperature. […] During this time leak currents were measured during a step to −110 mV (200 milliseconds). […]
T-type currents were measured as the peak inward current minus the current at the end of the 250 msec step to −20 mV. […] After incubation with compound for 10 minutes currents were measured again. […] For each compound, 8-point concentration-effect relationships were measured with ½ log serial dilutions. […]

T1 sequence (O95180 whole entry): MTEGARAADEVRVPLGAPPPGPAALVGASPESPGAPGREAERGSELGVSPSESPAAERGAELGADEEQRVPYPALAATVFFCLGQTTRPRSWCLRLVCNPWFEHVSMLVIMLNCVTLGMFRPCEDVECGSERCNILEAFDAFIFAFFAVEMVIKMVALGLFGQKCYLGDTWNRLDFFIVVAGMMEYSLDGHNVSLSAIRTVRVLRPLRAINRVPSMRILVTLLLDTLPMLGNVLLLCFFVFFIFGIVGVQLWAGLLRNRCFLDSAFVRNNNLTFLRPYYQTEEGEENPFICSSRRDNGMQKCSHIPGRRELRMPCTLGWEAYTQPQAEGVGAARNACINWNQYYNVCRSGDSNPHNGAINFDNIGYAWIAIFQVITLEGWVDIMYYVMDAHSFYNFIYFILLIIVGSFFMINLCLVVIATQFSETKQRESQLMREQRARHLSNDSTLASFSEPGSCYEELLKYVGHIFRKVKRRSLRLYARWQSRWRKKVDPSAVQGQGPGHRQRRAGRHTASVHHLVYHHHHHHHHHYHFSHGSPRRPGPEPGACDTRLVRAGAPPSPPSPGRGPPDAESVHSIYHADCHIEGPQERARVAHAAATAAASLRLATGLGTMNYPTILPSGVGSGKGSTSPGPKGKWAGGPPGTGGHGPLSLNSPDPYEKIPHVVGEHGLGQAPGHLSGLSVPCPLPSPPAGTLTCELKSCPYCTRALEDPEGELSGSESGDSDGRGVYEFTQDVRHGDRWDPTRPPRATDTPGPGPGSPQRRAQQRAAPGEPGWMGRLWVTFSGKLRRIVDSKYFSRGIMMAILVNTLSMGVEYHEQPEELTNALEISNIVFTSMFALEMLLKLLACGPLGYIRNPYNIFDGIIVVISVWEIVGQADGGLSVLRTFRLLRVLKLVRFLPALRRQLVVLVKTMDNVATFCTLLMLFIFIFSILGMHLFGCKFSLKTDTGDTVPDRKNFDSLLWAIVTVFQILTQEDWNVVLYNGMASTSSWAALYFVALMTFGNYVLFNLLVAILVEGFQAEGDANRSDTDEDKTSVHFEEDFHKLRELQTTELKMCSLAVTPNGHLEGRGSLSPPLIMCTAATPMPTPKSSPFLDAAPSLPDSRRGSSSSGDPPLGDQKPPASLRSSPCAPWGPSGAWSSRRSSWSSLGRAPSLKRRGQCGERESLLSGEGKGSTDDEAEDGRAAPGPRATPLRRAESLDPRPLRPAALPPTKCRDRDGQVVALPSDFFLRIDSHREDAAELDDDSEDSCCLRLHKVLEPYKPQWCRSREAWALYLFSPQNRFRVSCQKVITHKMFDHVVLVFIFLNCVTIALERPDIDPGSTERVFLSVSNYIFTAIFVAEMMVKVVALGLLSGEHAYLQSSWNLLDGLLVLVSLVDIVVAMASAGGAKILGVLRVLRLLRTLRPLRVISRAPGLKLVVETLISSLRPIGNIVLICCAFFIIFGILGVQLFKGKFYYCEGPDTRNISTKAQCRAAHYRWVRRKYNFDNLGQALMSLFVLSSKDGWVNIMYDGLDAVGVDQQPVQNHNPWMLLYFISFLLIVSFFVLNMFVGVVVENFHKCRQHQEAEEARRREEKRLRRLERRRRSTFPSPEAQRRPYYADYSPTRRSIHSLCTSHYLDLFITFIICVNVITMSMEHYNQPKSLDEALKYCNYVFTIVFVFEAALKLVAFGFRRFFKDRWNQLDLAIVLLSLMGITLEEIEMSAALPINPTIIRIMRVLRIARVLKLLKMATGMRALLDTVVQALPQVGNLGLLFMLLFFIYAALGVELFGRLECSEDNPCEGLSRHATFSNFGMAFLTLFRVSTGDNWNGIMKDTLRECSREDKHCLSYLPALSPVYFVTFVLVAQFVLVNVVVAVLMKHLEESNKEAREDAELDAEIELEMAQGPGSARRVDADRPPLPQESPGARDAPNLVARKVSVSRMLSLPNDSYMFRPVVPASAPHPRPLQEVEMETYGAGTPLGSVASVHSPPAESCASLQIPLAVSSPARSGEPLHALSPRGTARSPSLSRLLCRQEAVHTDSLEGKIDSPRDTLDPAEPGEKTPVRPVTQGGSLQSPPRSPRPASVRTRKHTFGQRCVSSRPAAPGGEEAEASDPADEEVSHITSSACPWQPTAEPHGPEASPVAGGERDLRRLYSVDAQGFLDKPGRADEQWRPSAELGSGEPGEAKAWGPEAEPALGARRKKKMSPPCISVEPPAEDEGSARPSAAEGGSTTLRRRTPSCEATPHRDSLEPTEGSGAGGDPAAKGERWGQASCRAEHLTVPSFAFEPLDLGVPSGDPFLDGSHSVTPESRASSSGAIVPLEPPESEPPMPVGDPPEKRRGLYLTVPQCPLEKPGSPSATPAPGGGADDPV

CC(C)N1CC2(CCN(c3nc4cc(F)c(C(F)(F)F)cc4[nH]3)CC2)C1c1ccc(Cl)cc1 (stereo not drawn) [Example 2]
IC50: 0.212 µM

CC(C)N1CC2(CCN(c3ccccn3)CC2)C1c1ccc(Cl)cc1 (stereo not drawn) [Example 3, 1-(4-Chlorophenyl)-2-(1-methylethyl)-7-(2-pyridinyl)-2,7-diazaspiro[3.5]nonane, formic acid salt]
IC50: 4.99 µM

CC(C)N1CC2(CCN(c3ncccn3)CC2)C1c1ccc(Cl)cc1 (stereo not drawn) [Example 4, 1-(4-Chlorophenyl)-2-(1-methylethyl)-7-(2-pyrimidinyl)-2,7-diazaspiro[3.5]nonane, formic acid salt]
IC50: 8.63 µM
